# In patent publication US20220008359A1, “COMBINATION ANTI-CANCER PRODUCTS AND METHODS” (priority 2020, published 2022):
# Marks after values point to notes of the source that are not given here.
# System: osimertinib-resistant (OR) H1975 cells
# Assay: In-cell immunostaining of protein expression and phosphorylation, osimertinib-resistant H1975 cells
# Assay type: cell-based, human
# Parameters: HDAC 1 expression / HDAC 2 expression / HDAC 3 expression / HDAC 4 expression / HDAC 5 expression / HDAC 6 expression / HDAC 7 expression / HDAC 8 expression / HDAC 9 expression / HDAC 10 expression / HDAC 11 expression: scale not given here
# Conditions: 6 h
# Experimental: Generation of erlotinib, afatinib and osimertinib-resistant cells. Cells were incubated in vitro with increasing concentrations of vehicle control or erlotinib or osimertinib until after ˜6 weeks the HCC827 and H1975 and H1650 cells grew with similar kinetics to sensitive cells in either erlotinib ([…]) or osimertinib ([…]), respectively. Afatinib-resistant cells were created in vivo by repeated high dosing until tumors disappeared and then regrew, as previously described.
# Assessments of protein expression and protein phosphorylation. Multi-channel fluorescence HCS microscopes perform true in-cell western blotting. Three independent cultures derived from three thawed vials of cells of a tumor were sub-cultured into individual 96-well plates. Twenty-four hours after plating, the cells are transfected with a control plasmid or a control siRNA, or with an empty vector plasmid or with plasmids to express various proteins. After another 24 hours, the cells are ready for drug exposure(s). At various time-points after the initiation of drug exposure, cells are fixed in place using paraformaldehyde and using Triton X100 for permeabilization. Standard immunofluorescent blocking procedures are employed, followed by incubation of different wells with a variety of validated primary antibodies and subsequently validated fluorescent-tagged secondary antibodies are added to each well. The microscope determines the background fluorescence in the well and in parallel randomly determines the mean fluorescent intensity of 100 cells per well.
# [1] = 1975 OR, GZ17-6.02 2 mM final curcumin, pemetrexed 500 nM
# [2] = 1975 OR, GZ17-6.02 2 mM final curcumin, pemetrexed 500 nM, vehicle 100%
# [3] = 1975 OR, GZ17-6.02, pemetrexed 500 nM, vehicle 100%
structure (smiles),measurement,setting,value
"Nc1nc2[nH]cc(CCc3ccc(C(=O)N[C@@H](CCC(=O)O)C(=O)O)cc3)c2c(=O)[nH]1 [PEM, Pemetrexed]",ERK2 expression,[1],101
same,HDAC 1 expression,[1],97
same,HDAC 2 expression,[1],93
same,HDAC 3 expression,[1],98
same,HDAC 4 expression,[1],100
same,HDAC 5 expression,[1],95
same,HDAC 6 expression,[1],93
same,HDAC 7 expression,[1],98
same,HDAC 8 expression,[1],101
same,HDAC 9 expression,[1],97
same,HDAC 10 expression,[1],100
same,HDAC 11 expression,[1],101
same,ATG5,[2],110%
same,Beclin1,[2],111%
same,CD95,[2],100%
same,CHOP,[2],107%
same,ERBB1,[2],99%
same,ERBB2,[2],100%
same,ERBB3,[2],101%
same,ERBB4,[2],100%
same,ERK2,[2],100%
same,FAS-L,[2],110%
same,GRP78,[2],115# %
same,P-AMPKα T172,[2],112%
same,P-ATG13 S318,[2],106%
same,P-ATM S1980,[2],109%
same,P-B1,[2],88%
same,P-B2,[2],92%
same,P-B3,[2],93%
same,P-B4,[2],95%
same,P-ERK1/2,[2],96%
same,P-JAK2,[2],89%
same,P-NFκB S536,[2],92%
same,P-PDGFRβ,[2],98%
same,P-PERK T980,[2],101%
same,P-SRC Y416,[2],90%
same,P-SRC Y527,[2],112%
same,P-STAT3 Y705,[2],88%
same,P-STAT5 Y694,[2],87* %
same,P-ULK1 S317,[2],103%
same,P-ULK1 S757,[2],96%
same,P-c-MET,[2],88%
same,P-c-MT,[2],90%
same,P-eIF2α S51,[2],101%
same,P-mTOR S2448,[2],94%
same,P-mTOR S2481,[2],92%
same,PDGFRβ,[2],100%
same,PP1,[2],105%
same,c-KIT,[2],101%
same,c-MET,[2],100%
same,p70 S6K,[2],101%
same,p70 S6K T389,[2],98%
same,JAK2,[3],98%
same,P-AKT T308,[3],87* %
same,BCL-XL expression,"H1975 OR, VEH = 100",90
same,ERK2 expression,"H1975 OR, VEH = 100",101
same,FLIP-s expression,"H1975 OR, VEH = 100",98
same,MCL-1 expression,"H1975 OR, VEH = 100",84*
